We go through five compounds from ChEMBL document CHEMBL3621168, “Elucidating new structural features of the triazole scaffold for the development of mPGES-1 inhibitors” (Medchemcomm, 2015).

A word on the IC50: it is the concentration at which inhibition is half-maximal. Low values mean greater potency in that assay, high ones weaker potency in that assay. One may read the inhibition as how much of the control response was suppressed. A high value points to a strong effect.

The target of one assay is T1, Prostaglandin E synthase (Homo sapiens, UniProt O14684).
T1 sequence (O14684 whole entry): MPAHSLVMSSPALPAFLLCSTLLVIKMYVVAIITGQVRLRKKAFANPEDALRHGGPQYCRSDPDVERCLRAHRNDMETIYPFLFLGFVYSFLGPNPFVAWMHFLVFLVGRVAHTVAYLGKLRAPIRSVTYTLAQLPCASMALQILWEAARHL
In words: Inhibition of mPGES1 isolated from human A549 cells after 15 mis by RP HPLC analysis. The format is cell-free.

In assay [1] the target is T2, Prostaglandin E synthase (Homo sapiens) (UniProt O14684).
T2 sequence (whole entry): T1 sequence (O14684 whole entry)
In words: Inhibition of mPGES1 isolated from human A549 cells at 10 uM after 15 mis by RP HPLC analysis. The format is cell-free.

`N#Cc1ccc(-n2cc(COc3ccc(C(F)(F)F)cc3)nn2)cc1C(F)(F)F`: the half-maximal inhibitory concentration (IC50) against Prostaglandin E synthase is > 30 µM. The inhibition in assay [1] came out at 20%.

`N#Cc1ccc(-n2cc(COc3cccc(C(F)(F)F)c3)nn2)cc1C(F)(F)F`: the IC50 against Prostaglandin E synthase is > 30 µM. In assay [1], the inhibition turned out to be 20%.

On to `N#Cc1ccc(-n2nnc(COc3ccc([N+](=O)[O-])cc3C(F)(F)F)c2I)cc1C(F)(F)F`, for which the IC50 on Prostaglandin E synthase is 0.7 µM.

Take `O=[N+]([O-])c1ccc(OCc2cn(-c3cccc(C(F)(F)F)c3)nn2)c(C(F)(F)F)c1`: the IC50 on Prostaglandin E synthase is > 30 µM. Moreover, the inhibition in assay [1] is 20%.

Regarding `N#Cc1ccc(-n2cc(COc3ccc([N+](=O)[O-])cc3C(F)(F)F)nn2)cc1C(F)(F)F`, the half-inhibitory concentration (IC50) against Prostaglandin E synthase is > 30 µM. In assay [1], the inhibition came to 20%.
